Publication PMC6627609, “Targeting Quorum Sensing: High-Throughput Screening to Identify Novel LsrK Inhibitors” (International Journal of Molecular Sciences, 2019)
“And” between values parts separate entries of the source, which are not always exact repeats. Equal entries are not always repeated. Where two headings read alike, the source gives them in different places.

Experiments:
[1] = biological target: LsrK (Salmonella typhimurium, UniProt Q8ZKQ6); experiment: biochemical; type: biochemical, S. typhimurium
[2] = biological target: T1, His-LsrK (Salmonella typhimurium, UniProt Q8ZKQ6); experiment: Thermal shift assay; type: binding, S. typhimurium; details: for shift in the Tm of His-LsrK: mean ± 95% CI; for shift in the Tm of His-LsrK (in words): dose range of test compound
Description: Compounds were added to qPCR plates by Echo acoustic dispenser with a DMSO backfill to maintain a constant final concentration of DMSO in each well (the assay is tolerant up to 8% DMSO with no effect on Tm of LsrK). LsrK protein was added at a concentration of 1 µg per well in a volume of 10 µL with 1× Thermo thermal shift dye or 5× Sypro Orange dye (used for aurin tricarboxylic acid as this compound fluoresces with Thermo dye in 25 mM TEA, 200 µM MgCl2, pH 7.1). Appropriate DMSO-only negative controls and 1 mM ATP/DMSO positive controls were included in each test occasion. Using an Applied Biosystems Quant Studio 5 qPCR machine (Thermo Fisher Scientific, Waltham, MA, USA) the following thermal shift protocol was used: step 1—hold at 25 °C for 1 min; step 2—heat at 0.05 °C/s dissociation then hold at 99 °C for 1 min. Filter setting for Thermo dye: Ex/Em 580/623 nm and for Sypro Orange dye: Ex/Em 470/520 nm.

[3] = system: mouse; details: ref MicroSource annotations, cited from earlier work
[4] = system: His-tagged control peptide or SDS denatured His-LsrK; experiment: MST assay, specificity controls; type: binding
[5] = biological target: T1, His-LsrK; experiment: MST assay; type: binding, S. typhimurium; details: 95% CI
[6] = system: E. coli LW7 pLW11; experiment: AI-2 QS interference assay; type: cell-based; details: for IC50: dose-response in the presence of PAβN, read-out: IC50 AI-2 QS inhibition
[7] = cited from earlier work
[8] = system: rat; details: ref MicroSource annotations, cited from earlier work
[9] = system: E. coli pBAC-lacZ; experiment: Control strain β-gal assay (QS-independent lac promoter); type: cell-based

LsrK, sequence (Q8ZKQ6 whole entry): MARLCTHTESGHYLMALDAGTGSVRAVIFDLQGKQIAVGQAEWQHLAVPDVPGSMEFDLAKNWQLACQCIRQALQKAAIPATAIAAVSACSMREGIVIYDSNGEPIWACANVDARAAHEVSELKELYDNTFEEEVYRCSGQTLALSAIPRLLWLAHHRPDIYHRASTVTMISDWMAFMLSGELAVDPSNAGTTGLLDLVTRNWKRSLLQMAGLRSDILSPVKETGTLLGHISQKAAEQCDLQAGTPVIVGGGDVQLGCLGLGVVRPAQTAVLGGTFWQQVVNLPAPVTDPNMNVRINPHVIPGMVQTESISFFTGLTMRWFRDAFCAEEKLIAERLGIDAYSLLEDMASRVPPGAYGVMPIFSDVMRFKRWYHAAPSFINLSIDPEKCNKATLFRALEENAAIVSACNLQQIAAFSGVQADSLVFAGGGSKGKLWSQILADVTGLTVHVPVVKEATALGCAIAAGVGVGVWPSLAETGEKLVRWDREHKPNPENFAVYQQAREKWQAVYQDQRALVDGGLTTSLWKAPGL
T1 sequence (Q8ZKQ6 whole entry): as above

CCCCCCCCCCCCCCCCC(C(=O)O)C(O)(CC(=O)O)C(=O)O (centres unmarked) [AGARIC ACID]
IC50 [1]: 7 µM
inhibition at 50 µM [1]: 157%
shift in the Tm of His-LsrK ([2]; 10 µM): −4.7 ± 0.70 °C

CN[C@@H]1[C@@H](O[C@H]2O[C@H](CO)[C@@H](N)[C@H](O)[C@H]2O)OC2C[C@@H](N)[C@@H](O[C@H]3[C@H](O)[C@@H](O)[C@H](N)C[C@@H]3N)OC2[C@@H]1O (some centres unmarked) [APRAMYCIN]
LD50 ([3]; iv): 280 mg/kg
inhibition at 50 µM [1]: 3%

O=C(O)C1=CC(=C(c2ccc(O)c(C(=O)O)c2)c2ccc(O)c(C(=O)O)c2)C=CC1=O [AURIN TRICARBOXYLIC ACID]
IC50 [1]: 1 µM
inhibition at 50 µM [1]: 96%
shift in the Tm of His-LsrK ([2]; 20 µM): −0.85 ± 0.38 °C
binding in MST to control peptide or SDS denatured His-LsrK [4]: no binding
Kd [5]: 0.408 ± 0.0699 µM
inhibition of AI-2 mediated QS ([6]; 10 µM, in the presence of PAβN): No significant activity
inhibition of AI-2 mediated QS ([6]; 50 µM, in the presence of PAβN): No significant activity

CC1=C(O)C(=O)C=C2C1=CC=C1[C@@]2(C)CC[C@@]2(C)[C@@H]3C[C@](C)(C(=O)O)CC[C@]3(C)CC[C@]12C [CELASTROL]
IC50 [1]: 4 µM
inhibition at 50 µM [1]: 109%
solubility [7]: poor solubility

C[C@@H]1CC[C@@]2(OC1)O[C@H]1C[C@H]3[C@@H]4CC=C5C[C@@H](O)CC[C@]5(C)[C@H]4CC[C@]3(C)[C@H]1[C@@H]2C [DIOSGENIN]
LD50 ([3]; po): > 8000 mg/kg
inhibition at 50 µM [1]: 0%
LD50 ([8]; ip): 4872 mg/kg

C[C@]1(OC(=O)/C=C/c2ccccc2)C[C@@H](O)[C@]2(O)C=CO[C@@H](O[C@@H]3O[C@H](CO)[C@@H](O)[C@H](O)[C@H]3O)[C@@H]21 [HARPAGOSIDE]
IC50 [1]: 10 µM
inhibition at 50 µM [1]: 108%
shift in the Tm of His-LsrK (in words) [2]: significant, dose-dependent, positive shift in the Tm
binding in MST to control peptide or SDS denatured His-LsrK [4]: No binding
Kd [5]: 18.4 ± 0.9 µM
inhibition of AI-2 mediated QS ([6]; 10 µM, in the presence of PAβN): only minor
inhibition at 50 µM ([6]; Escherichia coli, 50 µM, in the presence of PAβN, read-out: inhibition of AI-2 mediated QS): ~50%
IC50 ([6]; Escherichia coli): 14 µM

C[C@H](CCC(=O)O)[C@H]1CC[C@H]2[C@@H]3CC[C@@H]4C[C@H](O)CC[C@]4(C)[C@H]3CC[C@]12C [LITHOCHOLIC ACID]
LD50 ([3]; po): 3900 mg/kg
inhibition at 50 µM [1]: 2%

CC[C@@H](C)C(=O)O[C@H]1[C@H](O)[C@H]2[C@@H](CN3C[C@@H](C)CC[C@H]3[C@@]2(C)O)[C@@H]2C[C@]34O[C@]5(O)[C@@H](OC(=O)[C@@](C)(O)CC)CC[C@@]3(C)[C@@H]5[C@@H](OC(C)=O)[C@@H](OC(C)=O)[C@H]4[C@@]21O [PROT[…]]
inhibition at 50 µM [1]: 1%
LD50 ([8]; po): 5 mg/kg

O=C1C=CC(=C(c2ccc(O)cc2)c2ccc(O)cc2)C=C1 [ROSOLIC ACID]
effect on β-gal expression or activity in the control strain [9]: marginally affected
IC50 [1]: 1 µM
inhibition at 50 µM [1]: 119%
shift in the Tm of His-LsrK (in words) [2]: positively stabilizes His-LsrK in thermal shift at high concentrations
binding in MST to control peptide or SDS denatured His-LsrK [4]: No binding
Kd [5]: 100 µM and ~100 µM
inhibition of AI-2 mediated QS ([6]; 50 µM, in the presence of PAβN): nearly complete inhibition
inhibition at 10 µM ([6]; Escherichia coli, 10 µM, in the presence of PAβN, read-out: inhibition of AI-2 mediated QS): 68%
IC50 ([6]; Escherichia coli): 11 µM

CC(C)[C@@H]1NC(=O)[C@H](C)OC(=O)[C@@H](C(C)C)NC(=O)[C@@H](C(C)C)OC(=O)[C@H](C(C)C)NC(=O)[C@H](C)OC(=O)[C@@H](C(C)C)NC(=O)[C@@H](C(C)C)OC(=O)[C@H](C(C)C)NC(=O)[C@H](C)OC(=O)[C@@H](C(C)C)NC(=O)[C@@H](C(C)C)OC1=O [VALINOMYCIN]
inhibition at 50 µM [1]: 1%
LD50 ([8]; po): 4 mg/kg
